Measurements as given in PMC5047689 (Disease Models & Mechanisms, 2016).

What was measured:
CLB-GE cells = test: Resazurin cell proliferation assay, neuroblastoma cell line; type: cell-based; conditions: Homo sapiens, 120 h, read-out: IC50, inhibition of proliferation
Description: Fig. 1. […] Treatment of neuroblastoma cells with the ALK TKIs crizotinib and PF-06463922. (A,B) Proliferation was assessed over 5 days using the resazurin cell proliferation assay in the following neuroblastoma cell lines: CLB-BAR, CLB-GE, CLB-PE, SK-N-AS and IMR32. Neuroblastoma cell line characteristics: CLB-GE – MYCN amplified, 1p deletion, 17q gain, amplified ALK amplicon containing an ALK^F1174V mutation; CLB-BAR – amplified MYCN/ALK, Δexon 4-11, 1p deletion, 17q gain; IMR32 – MYCN, wt sequence but exons 2-4 are amplified, 1p deletion, 17q gain; CLB-PE – 1p gain, amplified MYCN, 17q gain; SK-N-AS – IGF-1 overexpressing, 1p deletion, 1q gain, 17q gain, 17 deletion. […] Cells were harvested and pre-cleared cell lysates were analyzed on SDS PAGE followed by western blotting for ALK, phospho-ALK-Y1278, phospho-ERK5, pan-ERK5 phospho-ERK1/2 and pan-ERK. Actin was employed as a loading control. Protein band intensities were quantified by Image Studio Lite 3.1 and normalized to untreated samples.
The neuroblastoma CLB cell lines were from Valerie Combaret (Centre Leon Berard, France) under material transfer agreement and all cell lines were authenticated during the investigation with Affymetrix Cytoscan High Density array and compared with earlier cytoscans ([Schleiermacher et al., 2003]). […]

CLB-BAR cells = test: as above; type: cell-based; conditions: Homo sapiens, 120 h, read-out: IC50, inhibition of proliferation
Description: (§1) Fig. 1. […] (A,B) Proliferation was assessed over 5 days using the resazurin cell proliferation assay in the following neuroblastoma cell lines: CLB-BAR, CLB-GE, CLB-PE, SK-N-AS and IMR32. Neuroblastoma cell line characteristics: CLB-GE – MYCN amplified, 1p deletion, 17q gain, amplified ALK amplicon containing an ALK^F1174V mutation; CLB-BAR – amplified MYCN/ALK, Δexon 4-11, 1p deletion, 17q gain; IMR32 – MYCN, wt sequence but exons 2-4 are amplified, 1p deletion, 17q gain; CLB-PE – 1p gain, amplified MYCN, 17q gain; SK-N-AS – IGF-1 overexpressing, 1p deletion, 1q gain, 17q gain, 17 deletion. […] Cells were harvested and pre-cleared cell lysates were analyzed on SDS PAGE followed by western blotting for ALK, phospho-ALK-Y1278, phospho-ERK5, pan-ERK5 phospho-ERK1/2 and pan-ERK. Actin was employed as a loading control. Protein band intensities were quantified by Image Studio Lite 3.1 and normalized to untreated samples.
(§2) CLB-BAR, CLB-GE, CLB-PE, SK-N-AS and IMR32 neuroblastoma cells (0.25×10^6) were plated on collagen-coated 48-well plates.

CLB-PE cells = test: as above; type: cell-based, human
Description: as §1, §2

IMR32 cells = test: as above; type: cell-based, human
Description: as §1, §2

SK-N-AS cells = test: as above; type: cell-based, human
Description: as §1, §2

[1] = system: ALK (phospho-ALK-Y1278) and downstream signaling; test: Immunoblotting of ALK signaling in CLB-BAR and CLB-GE neuroblastoma cells; type: cell-based, human; conditions: 6 h treatment, western blot
Description: as §1, §2

[2] = target: ALK kinase domain mutants; test: In vitro kinase assay, summary over ALK kinase domain mutants; type: biochemical, human; conditions: including ALK^G1269A, read-out: inhibitor level for 50% reduction in activity, all kinase domain mutations tested
[3] = system: CLB-GE subcutaneous xenograft; test: Subcutaneous CLB-GE (ALK^F1174V) xenograft in nude mice; type: in vivo, mouse
Description: Fig. 5. […] 4.5×10^6 CLB-GE cells were injected into left shoulder subcutaneously. (A) Tumor growth curves represent the average volume of vehicle group and PF-06463922-treated group, P≤0.05 (n=5 for each group). […] (C) Average body weight on the day of sacrifice is shown, P>0.05. (D) Immunoblotting analysis of indicated proteins from tumors collected after 8 days of treatment with vehicle or PF-0646399 and relapsed tumors. Tumor lysates were harvested, pre-cleared and analyzed by western blotting for ALK, phospho-ALK-Y1278, MYCN, phospho-ERK1/2 and phospho-AKT. Pan-ERK and pan-Akt were employed as loading controls. (E) Immunohistochemical staining of tumors for […] as a measure of proliferation rate as indicated. […] Data in all graphs presented as mean±s.d.
Mice were grouped by tumor volume randomly. […] Immunohistochemistry was as described ([Yamazaki et al., 2014]). […] (n=15).

[4] = design: method as in Johnson et al., 2014; Zou et al., 2015; conditions: ref Johnson et al., 2014, Zou et al., 2015, cited from earlier work
[5] = system: EML4-ALK-driven brain metastases; design: method as in Zou et al., 2015; conditions: mouse; effect reversible upon withdrawal; ref Zou et al., 2015; cited from earlier work
[6] = 10 mg/kg twice per day, oral gavage, 7 days
[7] = 10 mg/kg twice per day, tumor lysates, western blot

C[C@H]1Oc2cc(cnc2N)-c2c(nn(C)c2C#N)CN(C)C(=O)c2ccc(F)cc21 [PF-06463922, (10R)-7-amino-12-fluoro-2,10,16-trimethyl-15-oxo-10,15,16,17-tetrahydro-2H-8,4-(metheno)pyrazolo[4,3-h][2,5,11]-benzoxadiazacyclotetradecine-3-carbonitrile]
IC50 (CLB-GE cells): 25 ± 2 nM
IC50 (CLB-BAR cells): 16 ± 2 nM
decrease in proliferation at high doses (CLB-PE cells; high doses (500 nM)): not observed
inhibition of proliferation (CLB-PE cells; increasing doses, 5 days): did not observe inhibition of proliferation
decrease in proliferation at high doses (IMR32 cells; high doses (500 nM)): not observed
inhibition of proliferation (IMR32 cells; increasing doses, 5 days): did not observe inhibition of proliferation
decrease in proliferation at high doses (SK-N-AS cells; high doses (500 nM)): not observed
inhibition of proliferation (SK-N-AS cells; increasing doses, 5 days): did not observe inhibition of proliferation
ALK Y1278 phosphorylation [1]: loss of tyrosine 1278 (Y1278) phosphorylation on ALK
downstream signaling, pERK1/2 and pERK5 [1]: inhibition of downstream signaling
IC50 [2]: < 6.5 nM
Ki-67 staining of tumors ([3]; 10 mg/kg twice per day, immunohistochemistry): reduced staining of the proliferation marker Ki-67
body weight during treatment [3, 6]: no observed loss of body weight
tumor size during treatment [3, 6]: no increase of tumor size during treatment
MYCN expression in tumors [3, 7]: reduced expression of MYCN
phosphorylated ALK, ERK1/2 and PKB/Akt in tumors [3, 7]: Inhibition of phosphorylated ALK, ERK1/2 and PKB/Akt was observed
tumor re-growth after cessation of therapy ([3]; after 7 days of 10 mg/kg twice per day, treatment discontinued): Tumor re-growth was observed 7 days after cessation of therapy
half-life ([4]; preclinical animal model): 2.7 h
central nervous system penetration [4]: ability to penetrate the central nervous system
tumor volume and survival [5]: regression of tumor volume and prolonged mouse survival

C[C@@H](Oc1cc(-c2cnn(C3CCNCC3)c2)cnc1N)c1c(Cl)ccc(F)c1Cl [crizotinib]
IC50 (CLB-GE cells): 240 ± 27 nM
